Reference: patent US9206194B2, “Halichondrin B analogs” (Eisai R&D Management Co., Ltd., priority 2008, dated 2015)

Assays:
[1] = tested on: P-Glycoprotein-mediated MDR, Dx5-Rx1 versus MES-SA cells; assay: Susceptibility of compound to P-glycoprotein-mediated multidrug resistance (fold resistance); assay type: cell-based, human; conditions: fold resistance: ratio of the IC50 values in resistant and parental cell lines
Procedure: Susceptibility of Compound to P-Glycoprotein-Mediated Multidrug Resistance (MDR). A pair of human uterine sarcoma cell lines was used: MES-SA, the MDR negative parental cell line, and Dx5-Rx1, a cell line derived from MES-SA after long term of exposure to doxorubicin. This subline expresses P-Glycoprotein at high levels. Both cell lines were seeded at 7.5×10^3 cells/well in McCoy's 5A supplemented with 10% FBS and penicillin, streptomycin and L-glutamine and cell growth was measured as above. The ratio of the IC50 values obtained in the parental and resistant cell lines was termed fold resistance and provided an indication of compound susceptibility to P-glycoprotein-mediated MDR against the two cell lines were compared with each other.

[2] = tested on: MES-SA/Dx5-Rx1 uterine sarcoma cells (expresses P-Glycoprotein at high levels); assay: Cell growth inhibition assay (methylene blue-based microculture), Dx5-Rx1; design: species or system human; conditions: Dx5-Rx1, doxorubicin-selected P-glycoprotein expressing subline; 4 days incubation; compound in the crystalline form described
Procedure: (§1) The anti-cancer activity of the compounds described above, in the crystalline forms described, was determined using cell growth inhibition assays as described in Liu, J. et al. Anticancer Research, 27:1509-1511 (2007). The activity data in terms of IC50 nM is described below in Table 9. MES-SA and MES-SA/Dx5-Rx1 uterine sarcoma, were obtained from the American Type Culture Collection and grown in the recommended conditions.
(§2) Cell Growth Inhibition Assays. Cells were seeded at 7.5×10^3 cells/well in 96-well plates in the recommended medium supplemented with 10% FBS and penicillin, streptomycin and L-glutamine. […] The cell growth was determined using modifications (see Finlay G. J., et al. “A semiautomated microculture method for investigating growth inhibitory effects of cytotoxic compounds on exponentially growing carcinoma cells.” Anal Biochem 139: 272-277, 1984) of a methylene blue-based microculture assay (See Towle M. J., et al. “In vitro and in vivo anticancer activities of synthetic macrocyclic ketone analogues of halichondrin B.” Cancer Res 61: 1013-1021, 2001). […] The plates were read at A600-A405.
(§3) Susceptibility of Compound to P-Glycoprotein-Mediated Multidrug Resistance (MDR). […] Both cell lines were seeded at 7.5×10^3 cells/well in McCoy's 5A supplemented with 10% FBS and penicillin, streptomycin and L-glutamine and cell growth was measured as above. […]

[3] = tested on: MES-SA uterine sarcoma cells; assay: Cell growth inhibition assay (methylene blue-based microculture), MES-SA; design: species or system human; conditions: MDR negative parental cell line, 4 days incubation, compound in the crystalline form described
Procedure: as §1, §2, §3

## C=C1C[C@@H]2CC[C@@]34C[C@H]5O[C@H]6[C@@H](O3)[C@H]3O[C@H](CC[C@@H]3O[C@H]6[C@H]5O4)CC(=O)C[C@@H]3[C@@H](OC)[C@@H](C[C@H](O)CO)O[C@H]3C[C@H]3O[C@@H](CC[C@@H]1O2)C[C@@H](C)C3=C [ER-076349 monohydrate]
[1]
  Ratio of DxR-Rx1/MES-SA: 217
[2]
  IC50: 6.5 nM
[3]
  IC50: 0.03 nM

## C=C1C[C@@H]2CC[C@@]34C[C@H]5O[C@H]6[C@@H](O3)[C@H]3O[C@H](CC[C@@H]3O[C@H]6[C@H]5O4)CC(=O)C[C@@H]3[C@@H](OC)[C@@H](C[C@H](O)CN)O[C@H]3C[C@H]3O[C@H](CC[C@@H]1O2)C[C@@H](C)C3=C [ER-820057 (epi-C23 amine)]
[1]
  Ratio of DxR-Rx1/MES-SA: 303
[2]
  IC50: 1000 nM
[3]
  IC50: 3.3 nM
